Patent publication US4562199A, “Imidazole derivatives, compositions and use” (priority 1983, dated 1985)
Where a name gives a salt, the structure may show the parent alone.

Biological target: T1, Thromboxane A2 Synthetase (Equus caballus, UniProt A0A9L0T8T9)
T1 construct: [1-14C]arachidonic acid substrate, TXB2 by TLC
T1 sequence (A0A9L0T8T9 2-534): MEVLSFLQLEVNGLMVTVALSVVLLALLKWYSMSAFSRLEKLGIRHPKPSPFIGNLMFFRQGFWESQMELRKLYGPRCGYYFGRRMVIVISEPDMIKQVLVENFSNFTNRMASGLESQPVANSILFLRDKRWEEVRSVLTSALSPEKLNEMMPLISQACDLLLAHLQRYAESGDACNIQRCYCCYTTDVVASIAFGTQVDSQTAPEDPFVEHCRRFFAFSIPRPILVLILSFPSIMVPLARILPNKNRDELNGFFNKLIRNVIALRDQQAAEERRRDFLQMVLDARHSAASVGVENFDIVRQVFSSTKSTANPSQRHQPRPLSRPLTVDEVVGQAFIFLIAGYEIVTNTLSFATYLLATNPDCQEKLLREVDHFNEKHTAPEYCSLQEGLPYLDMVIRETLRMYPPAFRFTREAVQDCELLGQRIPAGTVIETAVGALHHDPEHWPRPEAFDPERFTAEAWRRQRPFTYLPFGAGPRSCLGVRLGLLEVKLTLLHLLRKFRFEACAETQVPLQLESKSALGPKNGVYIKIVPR
Experiment: Determination of Thromboxane A2 Synthetase Inhibitory Activity
Format: biochemical
Conditions: lysed platelets from horse PRP; [1-14C]-arachidonic acid; 3 min at 37° C.; Tris buffer pH 7.5; read-out: ED50 (concentration of active compound required to reduce the enzyme activity by 50%) (converted)
Description: The active compound was dissolved in a suitable solvent at a concentration of 5 mg/ml, and 20 μl added to 0.8 ml of 100 mM Tris buffer (pH 7.5).
The platelets from 5 ml of horse PRP were centrifuged and resuspended in 100 μl of Tris buffer. After lysis by sonication or freeze thawing, the platelet suspension was added to the solution of active compound and equilibrated for 5 min at room temperature. Then 300 ng (50 nCi) of [1-^14 -C]-arachidonic acid, dissolved in 100 μl Tris buffer, was added and the mixture incubated for 3 min at 37° C.
The reaction was stopped with 50 μl 2N HCl and the product extracted with 1.5 volumes ethyl acetate by whirling for 30 seconds. 1 ml saturated NaCl was added to the aqueous phase to prevent emulsion formation. The organic layer was removed, dried under N2 and the products redissolved in 50 μl chloroform/methanol mixture for quantitative spotting onto a TLC plate, and subsequent analysis.
The plate was developed in chloroform, methanol, acetic acid, water (90:8:1:0.8), dried and then visualised by autoradiography for 2-3 days.
The concentration of active compound required to reduce the enzyme activity by 50% (ED50) was established.

SMILES	IC50
CCOC(=O)/C=C/c1ccc(Cn2ccnc2)c(Cl)c1 [Example 2, Ethyl (E)-3-[3-chloro-4-(imidazol-1-ylmethyl)phenyl]prop-2-enoate]	1720 nM
O=C(O)/C=C/c1ccc(Cn2ccnc2)c(Cl)c1 [Example 3, (E)-3-[3-Chloro-4-(imidazol-1-ylmethyl)phenyl]prop-2-enoic acid hydrochloride]	167 nM

Next, values leading:

IC50	SMILES
266 nM	O=C(O)CCc1ccc(Cn2ccnc2)c(Cl)c1 [Example 4, 3-[3-Chloro-4-(imidazol-1-ylmethyl)phenyl]propanoic acid hydrochloride]
41.5 nM	O=C(O)C=Cc1ccc(Cn2ccnc2)c(Br)c1 [Example 6, 3-[3-Bromo-4-(imidazol-1-ylmethyl)phenyl]prop-2-enoic acid hydrochloride hydrate]
24200 nM	O=C(O)c1ccc(Cn2ccnc2)c(Cl)c1 [Example 1, 1-(4-Carboxy-2-chlorobenzyl)imidazole hydrochloride]
1330 nM	O=C(O)c1ccc(C=CCn2ccnc2)cc1Cl [Example 10, 1-[3-(4-Carboxy-3-chlorophenyl)prop-2-enyl]imidazole hydrochloride hemihydrate]
